{"source": "a melting point compilation (Tetko et al.)", "data": [{"units": {"melting point": "°C"}, "values": [{"smiles": "Cc1ccc([N+](=O)[O-])cc1I", "melting point": 61}, {"smiles": "CC(=O)CC(C)(C)C", "melting point": -64}, {"smiles": "COc1ccc(SSc2ccc(OC)cc2)cc1", "melting point": "40 to 42"}, {"smiles": "CC1=C(C(=O)OC(C)C)C(c2ccc3c(c2)OCO3)NC(=O)N1", "note": "(stereo unspecified)", "melting point": 186}, {"smiles": "CN(C)c1ccc(/C=C(/C#N)C(N)=S)cc1", "melting point": 189}, {"smiles": "O=c1nc2ccccc2nc(C(F)(F)F)c1NNc1cccnc1", "melting point": 157}, {"smiles": "C#CC1(O)CCC2C3CCC4=CC(=O)CCC4(C)C3CCC21C", "note": "(stereo unspecified)", "melting point": 269}, {"smiles": "O=C(O)C(CCCc1ccccc1)c1ccccc1", "note": "(stereo unspecified)", "melting point": 78}, {"smiles": "Cc1c(C)c2ccccc2c2ccccc12", "melting point": 144}, {"smiles": "Nc1ccccc1/C=C/c1nc2ccccc2[nH]1", "melting point": 213}, {"smiles": "COCCCNc1nc(NCCCOC)nc(SC)n1", "melting point": 55}, {"smiles": "Cc1cc(C(C)(C)C)c(O)c(C)c1CC1=NCCN1", "melting point": 182}, {"smiles": "O=[N+]([O-])c1ccc2c(c1)-c1ccc([N+](=O)[O-])c3cccc-2c13", "melting point": 223}, {"smiles": "COC(=O)c1ccc(Cl)cc1[N+](=O)[O-]", "melting point": 44}, {"smiles": "Cc1ccc(C(c2ccc(C(c3ccc(C)o3)c3ccc(C)o3)cc2)c2ccc(C)o2)o1", "melting point": 156}, {"smiles": "C/C=C/c1nc(O)n(-c2ccccc2)n1", "melting point": 188}, {"smiles": "C#CC=CC=C", "melting point": -81}, {"smiles": "CC(C)(C)OC(=O)NC(CO)C(=O)O", "note": "(stereo unspecified)", "melting point": 90.5}, {"smiles": "NC(=O)C(F)(F)C(F)F", "melting point": "57 to 59"}, {"smiles": "CCNC(C)CC", "note": "(stereo unspecified)", "melting point": -104}, {"smiles": "CCc1ccc([N+](=O)[O-])cc1", "melting point": -12}, {"smiles": "Ic1cc(I)c(I)c(I)c1", "melting point": 148}, {"smiles": "CCCCCC=CCC=CCCCCCCCC(=O)OC", "melting point": -35}, {"smiles": "OC1(C#Cc2ccccc2)Cc2ccccc21", "note": "(stereo unspecified)", "melting point": 99}, {"smiles": "CCCCOC(=O)c1ccc([N+](=O)[O-])cc1", "melting point": 35.5}, {"smiles": "O=C1CCCCCCN1", "melting point": 36.5}, {"smiles": "O=S1(=O)OCC2C(CO1)C1(Cl)C(Cl)=C(Cl)C2(Cl)C1(Cl)Cl", "note": "(stereo unspecified)", "melting point": 182}, {"smiles": "c1ccc(SCCSc2ccccc2)cc1", "melting point": 69}, {"smiles": "Cn1c([N+](=O)[O-])cnc1C=Cc1ccnc(N)n1", "melting point": 234}, {"smiles": "Cc1ccc2nc(C(F)(F)F)cc(Cl)c2c1", "melting point": "62 to 65"}, {"smiles": "CN1CCCN=C1C=Cc1cccs1", "melting point": 178}, {"smiles": "S=C=Nc1cc(Br)ccc1Br", "melting point": "49 to 51"}, {"smiles": "OCC(CO)(CO)NCCCNC(CO)(CO)CO", "melting point": 169}, {"smiles": "CSc1nc(=O)n2ccc(C)cc2n1", "melting point": "170 to 173"}, {"smiles": "CC(=O)OCC1OC(Oc2ccc([N+](=O)[O-])cc2)C(OC(C)=O)C(OC(C)=O)C1OC(C)=O", "note": "(stereo unspecified)", "melting point": 177}, {"smiles": "COC(=O)C(F)(F)C(F)(F)C(F)(F)F", "melting point": -86}, {"smiles": "CC12CCC3C(CC=C4CC(Cl)CCC43C)C1CCC2=O", "note": "(stereo unspecified)", "melting point": 157}, {"smiles": "O=C1CCc2cc(OCCCCc3nnnn3C3CCCCC3)ccc2N1", "melting point": 160}, {"smiles": "O=C(Oc1c(F)c(F)c(F)c(F)c1F)c1cccnc1", "melting point": "65.5 to 67"}, {"smiles": "CC(=Cc1ccccc1)c1ccccc1", "melting point": 82}, {"smiles": "O=[N+]([O-])c1cc(F)c(Br)cc1F", "melting point": 56}, {"smiles": "CC(O)CC(=O)O", "note": "(stereo unspecified)", "melting point": 49}, {"smiles": "Cc1ccc(N2CSc3nnc(-c4ccc([N+](=O)[O-])cc4)n3C2)cc1", "melting point": 226}, {"smiles": "Clc1ccc(Cc2c(N=Cc3ccc(OCc4ccccc4)cc3)n[nH]c2N=Cc2ccc(OCc3ccccc3)cc2)cc1", "melting point": "145 to 147"}, {"smiles": "O=C1c2c(Br)c(Br)c(Br)c(Br)c2C(=O)N1CCN1C(=O)c2c(Br)c(Br)c(Br)c(Br)c2C1=O", "melting point": 445}, {"smiles": "COC(=O)c1ccc(C(C)=O)cc1", "melting point": "93 to 95"}, {"smiles": "COc1cc(O)c(C(=O)c2ccccc2)c(O)c1", "melting point": 130}, {"smiles": "C/C=C/C1Nn2c(nnc2-c2cccc([N+](=O)[O-])c2)S1", "note": "(stereo unspecified)", "melting point": "222 to 224"}, {"smiles": "COc1ccc(C(=O)N=C=S)cc1", "melting point": "23 to 25"}, {"smiles": "NC(=O)c1cccnc1Sc1ccc(Cl)cc1", "melting point": "209 to 211"}, {"smiles": "Oc1nccnc1O", "melting point": 300}, {"smiles": "CC(=O)c1ccc(-c2cccc([N+](=O)[O-])c2)cc1", "melting point": 108}, {"smiles": "C=C(C)CC(C)=O", "melting point": -72.6}, {"smiles": "NC(CC(=O)O)C(F)(F)F", "note": "(stereo unspecified)", "melting point": "185 to 190"}, {"smiles": "COC(=O)C1(S(=O)(=O)c2ccc(Cl)cc2)CCC1", "melting point": 76.2}, {"smiles": "Cc1ccc(OC2CCC3C4CCC5CC(=O)CCC5(C)C4CCC23C)cc1", "note": "(stereo unspecified)", "melting point": "148 to 153"}, {"smiles": "CC(C)N(C(=O)Cl)C(C)C", "melting point": "55 to 60"}, {"smiles": "CC(C)(C)c1cc(C#N)cc(C(C)(C)C)c1O", "melting point": "144 to 146"}, {"smiles": "NC(=O)CC[C@H](NC(=O)C(F)(F)F)C(=O)O", "melting point": "146 to 150"}, {"smiles": "c1cc2c3c(cccc3c1)-c1nccnc1-2", "melting point": 146}, {"smiles": "CC(=O)OCC1OC(C#N)=CC(OC(C)=O)C1OC(C)=O", "note": "(stereo unspecified)", "melting point": "112 to 115"}, {"smiles": "O=C1CCc2ccccc2CC1", "melting point": 30}, {"smiles": "COC(=O)c1ccccc1NC(=S)NNC(=O)C(=O)c1c[nH]c2ccccc12", "melting point": 283}, {"smiles": "BrCC(Br)(Br)Br", "melting point": 0}, {"smiles": "C1CCC2C(C1)CCC1C3CCCCC3CCC21", "note": "(stereo unspecified)", "melting point": 115}, {"smiles": "NS(=O)(=O)c1ccc(-c2ccc(C=O)o2)cc1", "melting point": "199 to 201"}, {"smiles": "Nc1ccc(S(=O)(=O)N2CCCCC2)cc1", "melting point": "169 to 170"}, {"smiles": "Cc1c(Br)sc2ccc(Cl)cc12", "melting point": 106}, {"smiles": "Cc1nc2ccccc2c(=O)n1-c1ccccc1Cl", "melting point": 126}, {"smiles": "S=C(c1ccc2c(c1)OCO2)N1CCCCC1", "melting point": 113}, {"smiles": "CCN(C(C)=O)c1ccccc1", "melting point": 55}, {"smiles": "Cn1ccsc1=NC(=O)c1ccccc1", "melting point": 114}, {"smiles": "COc1cc(O)c2c(=O)cc(-c3ccc(O)cc3)oc2c1", "melting point": 289}, {"smiles": "Cc1cc(=O)oc2cc(OCC(=O)Cl)ccc12", "melting point": 129}, {"smiles": "O=C1CCC(=O)CC1", "melting point": 78}, {"smiles": "c1ccc2c(c1)Sc1ccccc1N2CC1CN2CCC1CC2", "note": "(stereo unspecified)", "melting point": 130}, {"smiles": "COS(=O)(=O)c1ccc([N+](=O)[O-])cc1", "melting point": 94}, {"smiles": "NS(=O)(=O)c1ccc(SCCCCO)s1", "melting point": 48.5}, {"smiles": "O=[N+]([O-])c1cc(Cl)ccc1S(=O)(=O)c1ccccc1", "melting point": "115 to 117"}, {"smiles": "O[C@@H]1CC2=C(CCCC2)C[C@@H]1O", "melting point": "120 to 121"}, {"smiles": "Cc1ccc(C(=O)C(=O)c2ccc(Cl)cc2)cc1", "melting point": "123 to 124"}, {"smiles": "Clc1ccc(-c2csc3nc4ccccc4n23)cc1", "melting point": "200 to 203"}, {"smiles": "CCOC(=O)C(C#N)=C(SC)Sc1ncccn1", "melting point": "103 to 105"}, {"smiles": "CC(=O)Oc1ccc2c(C)cc(=O)oc2c1", "melting point": "152 to 156"}, {"smiles": "O=C(c1ccccc1)c1noc(-c2ccccc2)c1S(=O)(=O)c1ccccc1", "melting point": 188}, {"smiles": "COc1cc(NC(=S)N(C)C)c(C(c2ccc(C)o2)c2ccc(C)o2)cc1OC", "melting point": 163}, {"smiles": "CCOC(=O)C(=O)CC(C)=O", "melting point": "16 to 18"}, {"smiles": "CCNc1nc(Cl)nc(NC(C)(C)C)n1", "melting point": 178}, {"smiles": "CCCCNC(=O)NCC(=O)O", "melting point": 140}, {"smiles": "Cc1ccc(N)c(C(=O)O)c1", "melting point": "174 to 177"}, {"smiles": "CCOC(=O)C1=C(C)N=c2cc3c(cc21)=C(C(=O)OCC)C(C)=N3", "melting point": 342}, {"smiles": "CC(C)(O)CCSc1ccc(S(N)(=O)=O)cc1", "melting point": 140}, {"smiles": "O=C(O)CC=Cc1ccccc1", "melting point": 87}, {"smiles": "O=C(CBr)c1csc2ccccc12", "melting point": "138 to 139"}, {"smiles": "N#Cc1ccc(N2CCNCC2)cc1", "melting point": "82 to 84"}, {"smiles": "Cn1c(=O)c(C2=NNC(=O)C2=Cc2ccccc2O)c(O)c2ccccc21", "melting point": 240}, {"smiles": "COc1ccc(Cn2ncc(Cl)c(Cl)c2=O)cc1", "melting point": "117 to 120"}, {"smiles": "CNc1c(C=O)c(=O)oc2ccccc12", "melting point": "215 to 216"}, {"smiles": "CCCCc1ccc(NC(=O)Oc2ccc(OC)cc2)cc1", "melting point": 143}, {"smiles": "ClCCCCCCCCCCCl", "melting point": 15.6}, {"smiles": "CCn1c2c(c3cc(OC)ccc31)CCc1cc(OC)ccc1-2", "melting point": "145 to 147"}, {"smiles": "O=[N+]([O-])c1ccccc1SC1OC(CO)C(O)C(O)C1O", "note": "(stereo unspecified)", "melting point": "196 to 203"}, {"smiles": "O=c1c(Cl)c(Cl)cnn1Cc1c(Cl)cccc1Cl", "melting point": "158 to 160"}, {"smiles": "CCCCCCCNCCCCCCC", "melting point": 31.5}, {"smiles": "NC(Cc1cc(F)cc(F)c1)C(=O)O", "note": "(racemic)", "melting point": "243 to 245"}, {"smiles": "C1CCCCCCCCCC1", "melting point": -7}, {"smiles": "CC(O)CC(C)(C)C", "note": "(stereo unspecified)", "melting point": -60}, {"smiles": "S=C(/N=N/c1ccccc1)NNc1ccccc1", "melting point": 168}, {"smiles": "O=C(O)c1ccc(F)c(Cl)c1", "melting point": 135}, {"smiles": "Nc1cccc(C=O)c1", "melting point": 30}, {"smiles": "CC1CCC(C)(C(=O)NNc2ccccc2)C1(C)C", "note": "(stereo unspecified)", "melting point": 92}, {"smiles": "OCc1ccc(I)cc1", "melting point": 73}, {"smiles": "COC(=O)c1cccc(C(=O)O)c1", "melting point": 166}, {"smiles": "Nc1cc(F)c(F)c(F)c1F", "melting point": 28}, {"smiles": "CCCCCCCCCCCCOC(=O)CCSCCC(=O)OCCCCCCCCCCCC", "melting point": 41}, {"smiles": "CC(C)(C)c1ccc(S)cc1", "melting point": -11}, {"smiles": "Oc1ccc2c(O)cccc2c1", "melting point": 138}, {"smiles": "CCC(=Cc1ccccc1)[N+](=O)[O-]", "melting point": 90.5}, {"smiles": "O=C(CBr)c1cc(-c2ccccc2)no1", "melting point": "109 to 112"}, {"smiles": "C=CCOc1c(Br)cc(C(C)(C)c2cc(Br)c(OCC=C)c(Br)c2)cc1Br", "melting point": 119}, {"smiles": "CCC(C(=O)O)C1(O)CCCCC1", "note": "(stereo unspecified)", "melting point": 81.5}, {"smiles": "CC(=O)c1csc(-c2cc(C)on2)n1", "melting point": "130 to 132"}, {"smiles": "CC#CCOS(=O)(=O)c1ccc(C)cc1", "melting point": 47.5}, {"smiles": "CC(C)Nc1ccc(C(F)(F)F)cc1[N+](=O)[O-]", "melting point": "103 to 105"}, {"smiles": "O=C(O)c1cccnc1F", "melting point": "164 to 165"}, {"smiles": "C(=N\\c1ccc(-c2ccc(/N=N/c3ccccc3)cc2)cc1)/c1ccccc1", "melting point": 226}, {"smiles": "Nc1c(F)c(F)c(F)c(F)c1F", "melting point": 35.5}, {"smiles": "O=C1OC(c2ccccc2)=NC1=Cc1ccc(-c2cccc([N+](=O)[O-])c2)o1", "melting point": "144 to 145"}, {"smiles": "CN(C)c1ccc(N)cc1", "melting point": 53}, {"smiles": "NC(N)=NCCCCCCCCNCCCCCCCCN=C(N)N", "melting point": 60}, {"smiles": "Cn1ncc2c(=N)n(N)cnc21", "melting point": 185}]}]}
